Data published in PMC9820345, “Metal Complexes of a 5-Nitro-8-Hydroxyquinoline-Proline Hybrid with Enhanced Water Solubility Targeting Multidrug Resistant Cancer Cells” (International Journal of Molecular Sciences, 2022).

Key:
HSA site II = biological target: T1, HSA site II (Homo sapiens, UniProt P02768); assay: HSA dansylglycine (DG) site marker displacement by fluorometry (site II); format: binding; settings: 1 µM HSA, 1 µM DG, pH 7.4 (PBS')
T1 construct: purchased Sigma-Aldrich (Darmstadt, Germany) A8763
Protocol: Therefore, tryptophan (Trp-214) quenching and dansylglycine (DG) site marker displacement experiments were conducted by fluorometry to obtain information about the binding at sites I and II, respectively, using the same approach reported in our former paper. A representative spectral series is shown in Figure 9a for the Trp-214 quenching experiment, upon the addition of the RhCp*–HQNO2-L-Pro complex and the computed binding constants (logKQ’ and logKDG’) which can be found in Figure 9b, in addition to the corresponding data for the HQCl-L-Pro complexes.
A Fluoromax (Horiba Jobin Yvon, Longjumeau, France) spectrofluorometer was utilized for fluorescence measurements using a 1 cm × 1 cm quartz cuvette. Samples contained 1 µM HSA or DG and 1 µM HSA at pH 7.4 (PBS’), and the complex concentration was varied between 0 and 53 µM. The measurements were carried out on individual samples. Excitation wavelengths were 295 nm for Trp-214 quenching, and 335 nm for the DG displacement studies, respectively. The calculated conditional stability constants for HSA–complex species were obtained using the computer program HypSpec. Calculations always were based on data obtained from at least two independent measurements. Self-absorbance and inner filter effect had to be taken into account, and corrections were made as was described in our former works.

[1] = Mixed-ligand adduct formation with N-methylimidazole; format: binding; settings: mim, pH 7.4
Protocol: According to numerous papers on the binding of half-sandwich organometallic complexes to HSA [35, 36], surface exposed histidine (His) side chains are the most feasible coordinating moieties. […] The equilibrium could be reached within 3–10 min in the case of the RhCp* complex on the basis of the UV-vis spectral changes (Figure S28), and similar conditional constants (logK’) were computed with these model compounds for the formation of mixed-ligand RhCp* complexes; namely logK’ 5.00 ± 0.1, 4.4 ± 0.1, 5.1 ± 0.1 were obtained in the case of FHA, AHA, and mim, respectively. […] In the case of the oligopeptides, formation of isomers was detected which might be explained by the existence of two chiral centers, namely the metal ion and His-CHα. The adduct formation of the RuCym complex with mim was quantitative, hindering the determination of the logK’ value (meaning logK’ > 5.5). […]
An Agilent Cary 8454 diode array spectrophotometer (Santa Clara, CA, USA) was used to obtain UV-vis spectra in the wavelength range 200–1000 nm, while spectra were recorded for the Fe(II)-containing samples using an Avantes (Avantes B.V., Apeldoorn, The Nederlands) AvaSpec-ULS2048CL-EVO spectrometer with an AvaLight-DHc light source and FDP-7UVIR200-2-VAR transmission dip probe. […]

[2] = Stability of the complexes in RPMI medium (UV-vis, 1H NMR); format: physicochemical; settings: compared with serum
Description: The stability of the RhCp* and RuCym complexes of HQNO2-L-Pro was also monitored in Roswell Park Memorial Institute (RPMI) medium used for the in vitro cell studies (in the case of Colo cells), and in blood serum using UV-vis and ^1H NMR spectroscopy. […] Despite these changes, the dissociation of the complexes is not likely as the liberation of the unbound ligand was not observed; thus, the complexes most probably form ternary complexes with the components of the serum or the medium. In order to further study the reactivity of these complexes with bioligands, their interaction with human serum albumin (HSA) and selected oligopeptides (also used as binding models of HSA) was assayed.

T1 sequence (P02768 25-609): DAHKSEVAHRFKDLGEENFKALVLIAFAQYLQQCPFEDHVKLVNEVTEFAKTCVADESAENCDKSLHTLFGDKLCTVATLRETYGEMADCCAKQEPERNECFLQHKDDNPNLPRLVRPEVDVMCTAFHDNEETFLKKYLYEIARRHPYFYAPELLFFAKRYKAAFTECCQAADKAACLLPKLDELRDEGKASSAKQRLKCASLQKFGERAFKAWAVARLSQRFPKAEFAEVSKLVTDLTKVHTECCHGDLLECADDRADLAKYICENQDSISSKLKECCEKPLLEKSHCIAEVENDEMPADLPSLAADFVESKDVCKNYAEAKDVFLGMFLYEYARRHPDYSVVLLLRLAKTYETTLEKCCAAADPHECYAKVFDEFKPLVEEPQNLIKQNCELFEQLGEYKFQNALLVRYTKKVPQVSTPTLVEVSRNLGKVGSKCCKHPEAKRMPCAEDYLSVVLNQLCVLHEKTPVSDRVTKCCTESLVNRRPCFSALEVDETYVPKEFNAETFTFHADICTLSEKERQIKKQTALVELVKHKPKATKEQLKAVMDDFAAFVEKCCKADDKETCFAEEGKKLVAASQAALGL

Kd (HSA site II; read-out: DG marker displacement constant logKDG' (converted)) | DG marker displacement constant logKDG' (HSA site II) | Structure (SMILES) | conditional constant logK' of mixed-ligand complex ([1]; UV-vis) | spectral changes on incubation in RPMI medium [2] | conditional constant logK' of adduct ([1]; 1H NMR, 24 h incubation, adduct formation quantitative)
33.9 µM | – | O=C(O)[C@@H]1CCCN1Cc1cc([N+](=O)[O-])c2cccnc2c1O [HQNO2-L-Pro, (2S)-1-((8-hydroxy-5-nitroquinolin-7-yl)methyl)pyrrolidin-1-ium-2-carboxylate] | – | – | –
– | 5.6 | CC1=C(C)[C](C)([Rh]([Cl])[O]c2c(C[NH+]3CCC[C@H]3C(=O)O)cc([N+](=O)[O-])c3cccnc23)C(C)=C1C.[Cl-] [RhCp*-HQNO2-L-Pro, [RhCp*(HQNO2-L-Pro)Cl]Cl] | 5.1 ± 0.1 | more significant | –
– | – | Cc1ccc(C(C)C)cc1.O=C(O)[C@@H]1CCC[NH+]1Cc1cc([N+](=O)[O-])c2ccc[n+]3c2c1[O][Ru-]3[Cl].[Cl-] [RuCym-HQNO2-L-Pro, [RuCym(HQNO2-L-Pro)Cl]Cl] | – | more significant | > 5.5
